Source: patent publication US12390447B2, “Sirtuin 6 protein deacylase (SIRT6) activators” (Wisconsin Alumni Research Foundation, priority 2019, dated 2025)

Experiments:
Type in all cases: biochemical
SIRT6 [1] = biological target: T1, SIRT6 (Homo sapiens, UniProt Q8N6T7); experiment: Small molecule SIRT6 activator screen (H3K9ac peptide deacetylation, HPLC); settings: compound 100 μM; SIRT6 1 μM; H3K9ac peptide 20 μM; 0.5 mM NAD+
Description: Mastermix containing SIRT6, buffer, and H3K9ac peptide were distributed to wells using Microflex peristaltic dispenser (Beckman). Plates were spun and preheated to 37° C. before addition of NAD^+ using peristaltic dispenser. After 60 minutes reactions were quenched with 2% TFA final using peristaltic dispenser then sealed and spun again before in-house HPLC separation and quantification of substrate and product peptides. Reaction conditions were 1 μM SIRT6, 0.5 mM NAD^+, […] (4-16), 20 mM potassium phosphate pH 7.5, 10% DMSO, and either 10 or 100 μM compound determined by 10-fold dilution of stock library concentration.
All sirtuin deacylation assays were carried out at 37° C. in 20 mM potassium phosphate pH 7.5 with 0.5 mM NAD^+, 10% DMSO, and 20 μM H3K9ac or H3K9myr peptides, unless otherwise noted in legend, and quenched by the addition of 2% TFA final. Steady-state reactions were constrained to less than 20% substrate turnover to prevent product inhibition. A variety of times were required to monitor SIRT6 deacetylation (2-60 minutes) under this restraint given the ability to strongly activate catalysis. In these cases, specific activities were determined and either reported as is or as fold-activation of specific activity. […] Deacetylation reactions were analyzed using a gradient of 33-100% B (30% acetonitrile with 0.05% TFA) in 8 min at 1.6 mL min^−1. Demyristoylation reactions were analyzed using a gradient of 3 to 100% B (acetonitrile with 0.05% TFA) in 10 min at 1.6 mL min^−1. The product and substrate peaks were quantified and ratio of these allowed for quantification of product formation.

SIRT6 [2] = biological target: T1, SIRT6; experiment: SIRT6 deacetylation of H3K9ac peptide, fold-activation versus activator concentration; settings: for EC50: H3K9ac peptide 20 μM, sigmoidal curve fit
Description: (1A) Compound libraries BML-2803, BML-2800, and an additional set of 178 molecules were screened at 100 μM for their ability to stimulate SIRT6 (1 μM) deacetylation of H3K9ac peptide (20 μM) in the presence of 0.5 mM NAD^+. SIRT6 activity was measured by HPLC quantification of H3K9ac and deacetylated product (inset) and fold activations relative to DMSO control were determined and compiled. (1B) Fold-activation of SIRT6 (1 μM) determined in the presence of either 0-400 μM CL4, 0-150 μM TTNPB, 0-100 μM Lysophosphatidic acid (LPA), or 0-200 μM linoleoylglycine (LGly). Maximum fold-activation and EC50 determined by sigmoidal curve fit. (1C) Steady-state kinetic analysis of SIRT6 (1 μM) deacetylation was conducted with 0-250 μM H3K9ac peptide in the presence of 100 μM CL4, 50 μM TTNPB, 50 μM LPA, or 50 μM LGly. Constants Km, H3K9ac and kcat were determined by fitting data to Michaelis-Menten equation. (1D) Fold-activations of SIRT1 (0.1 μM), SIRT2 (0.2 μM), SIRT3 (1 μM), SIRT5 (2 μM), and SIRT6 (1 μM) determined in the presence of CL4 (100 μM), TTNPB (50 μM), and LPA (50 μM) relative to DMSO control against 20 μM H3K9ac peptide and 0.5 mM NAD^+. Mean values reported with error bars representing standard deviation of at least three replicates.
All sirtuin deacylation assays were carried out at 37° C. in 20 mM potassium phosphate pH 7.5 with 0.5 mM NAD^+, 10% DMSO, and 20 μM H3K9ac or H3K9myr peptides, unless otherwise noted in legend, and quenched by the addition of 2% TFA final. Steady-state reactions were constrained to less than 20% substrate turnover to prevent product inhibition. A variety of times were required to monitor SIRT6 deacetylation (2-60 minutes) under this restraint given the ability to strongly activate catalysis. In these cases, specific activities were determined and either reported as is or as fold-activation of specific activity. Deacylation reactions were analyzed by reversed phase high-performance liquid chromatography on a Kinetex C18 column (100 Å, 100×4.6 mm, 2.6 μm, Phenomenex) by monitoring the formation of the deacylated product at 214 nm. Deacetylation reactions were analyzed using a gradient of 33-100% B (30% acetonitrile with 0.05% TFA) in 8 min at 1.6 mL min^−1. Demyristoylation reactions were analyzed using a gradient of 3 to 100% B (acetonitrile with 0.05% TFA) in 10 min at 1.6 mL min^−1. The product and substrate peaks were quantified and ratio of these allowed for quantification of product formation. […]

SIRT6 [3] = biological target: T1, SIRT6; experiment: Histone deacetylation assay with acid extracted histones, H3K9ac immunoblot; settings: 50 μM compound; histones 75 μg/mL from SAHA-treated HEK293T cells; SIRT6 1 μM
Description: HEK293T cells were cultured in Dulbecco's Modified Eagle Medium supplemented with 10% fetal bovine serum. Cells were treated with 10 μM SAHA for 24 hours prior to harvest. Cells were trypsinized and pelleted prior to washing twice with ice-cold PBS. Cells were then resuspended in 800 μL ice-cold 10 mM HEPES pH 7.4, 10 mM KCl, 0.05% NP-40, and histone deacetylase and protease inhibitors (1 mM sodium butyrate, 4 μM trichostatin A, 100 μM phenylmethylsulfonyl fluoride, 10 μg/mL leupeptin, and 10 μg/mL aprotinin) for 20 minutes. After a 1,000×g 10 minute spin at 4° C. the pelleted nuclei were resuspended in 0.2 M HCl and incubated on ice for 20 minutes. Following 10 minute spin at 21,000×g at 4° C. the acid extracted supernatant was neutralized with 1 M Tris-HCl pH 8 prior to BCA protein concentration measurement. Histone deacetylation assays were ran with 75 μg/mL extracted histones, 1 μM SIRT6, 50 μM CL5, CL5D or 5% DMSO control, 0.5 mM NAD^+, in 20 mM potassium phosphate pH 7.5. Reactions ran at 37° C. prior to quench with SDS loading dye and 5 minute boil. 540 ng of nuclei acid extract following sirtuin reaction were loaded for 15% SDS-PAGE followed by transfer to nitrocellulose. Membrane was blocked with 1% milk before blotted with anti-H3K9ac (Active Motiff 39917) 1:3000 and imaged. […] Bands were quantified using Image Studio Lite (LiCor). […]

T1 sequence (Q8N6T7 whole entry): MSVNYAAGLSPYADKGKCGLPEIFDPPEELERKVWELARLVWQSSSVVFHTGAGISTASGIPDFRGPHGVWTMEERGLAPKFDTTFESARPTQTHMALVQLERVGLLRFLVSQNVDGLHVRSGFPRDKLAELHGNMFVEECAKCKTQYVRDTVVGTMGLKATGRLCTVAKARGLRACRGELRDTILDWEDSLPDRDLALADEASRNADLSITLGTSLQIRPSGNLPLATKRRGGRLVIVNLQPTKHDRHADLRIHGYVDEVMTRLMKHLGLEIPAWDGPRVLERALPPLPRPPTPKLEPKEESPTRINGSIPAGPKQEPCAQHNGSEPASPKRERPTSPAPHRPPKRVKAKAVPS

Compound | F.A. (fold-activation of SIRT6 relative to DMSO control) (SIRT6 [1]) [fold] | also measured
CCCCCCCCCCCCCCC(F)C(=O)O (stereo not shown) [2-Fluoropalmitic acid] | 25 | –
CCCCC/C=C\C/C=C\C/C=C\C/C=C\CCCC(=O)O [Arachidonic acid (20:4 n-6)] | 15 | –
O=C(O)c1ccc2c(c1)C(=O)N(c1ccc(NC(=O)c3ccccc3)cc1)C2=O [CL-5, 2-(4-benzamidophenyl)-1,3-dioxoisoindoline-5-carboxylic acid] | – | concentration required to stimulate 4-fold activation of SIRT6 (SIRT6 [2]; SIRT6 1 μM, H3K9ac 20 μM, 0.5 mM NAD+): >400 µM; activation of SIRT6 (in words) (SIRT6 [2]; concentrations up to 400 μM): no activation; SIRT6 deacetylation at H3K9 of whole histone substrate (in words) (SIRT6 [3]): not
CCCCCCCC/C=C\CCCCCCCC(=O)OCC(O)COP(=O)(O)O (stereo not shown) [Lysophosphatidic acid, oleoyl-lysophosphatidic acid, reference compound] | – | EC50 (SIRT6 [2]; SIRT6 1 μM, 0.5 mM NAD+): 25 ± 1 µM
CCCCCCCC/C=C\C/C=C\C/C=C\CCCC(=O)O [Mead acid (20:3 n-9)] | 16 | –
C/C(=C\c1ccc(C(=O)O)cc1)c1ccc2c(c1)C(C)(C)CCC2(C)C [TTNPB, arotinoid acid, reference compound] | – | EC50 (SIRT6 [2]; SIRT6 1 μM, 0.5 mM NAD+): 53 ± 3 µM
CCCCCCCCCCCCCC(=O)O [myristic acid] | 3.7 | –
Eicosatrienoic acid (20:3 n-3) | 17 | –
